One assay relates to cellules RAW 264.7. Nature of the assay: Mannose receptor expression on RAW 264.7 cells transfected with CMV-luciférase or CMV-PPARγ, flow cytometry. The following applies: 24 h, 1 µM 15d-PGJ2, 5 µM ciglitazone, 5 µM rosiglitazone; for Moyenne géométrique de l'intensité de fluorescence, CMV-PPAR-γ: RAW 264.7 transfected with CMV-PPARγ, control 53,87; for Moyenne géométrique de l'intensité de fluorescence, CMV-LUC: RAW 264.7 transfected with CMV-luciférase, control 47,51.

In assay [1] the test system is macrophages. In words: Production of oxidants by cultured macrophages, luminol chemiluminescence. The format is cell-based, souris. The conditions noted are these: for Production d'agents oxydants, avec ANS / Production d'agents oxydants, avec ODN / Production d'agents oxydants, sans antisens: 1 h; for Production d'agents oxydants, avec ANS: macrophages incubated 3 days with non-specific antisense ANS, control 6972 ± 90; for Production d'agents oxydants, avec ODN: macrophages incubated 3 days with specific antisense ODN, control 6795 ± 178; for Production d'agents oxydants, sans antisens: without antisense, control 6737 ± 139. Here is the method:
Concernant le traitement à l'antisens ODN, une séquence complémentaire à la région 3' non traduite de l'ARNm du MMR (Yamamoto et al., Infect Immun, 1997, 65:1077-82), on incube l'antisens ODN (100 nM) avec 10 µg de lipide cationique Lipofectin (GIBCO, France) à 37°C pendant 5 min selon la méthode Capacciolis et al. (Biochem Biophys Res Commun, 1998, 197:818-25) puis on l'ajoute aux macrophages cultivés dans le DMEM sans sérum. Les cellules sont incubées pendant 4 heures à 37°C avec 5 % de CO2 atmosphérique. Le milieu est remplacé par du SFM contenant l'antisens ODN mais sans Lipofectin. Les cultures sont incubées pendant 3 jours avec un changement journalier du milieu. La concentration de l'antisens ODN utilisée n'entraîne aucune toxicité significative sur les macrophages. Les macrophages non traités et les macrophages traités avec la Lipofectin seule servent de contrôle. La séquence nucléique de l'antisens ODN est exposée dans le tableau 2. Le même traitement est réalisé avec un antisens non spécifique de l'ARNm du MMR, l'antisens ANS dont la séquence nucléique est exposée dans le tableau 2.
Pour les tests de production d'agents oxydants, l'explosion respiratoire oxygène-dépendante des macrophages traités par les agonistes de PPARγ est mesurée par chimiluminescence. Les macrophages (2.10^5) sont transférés sur des boîtes de culture de 5 mm de diamètre. Après activation des cellules, la production d'agents oxydants par les macrophages, en présence ou en absence de C. albicans, est mesurée par chimiluminescence en présence de luminol à 37°C. L'émission de chimiluminescence est enregistrée en continu pendant 1 heure après incubation des cellules avec le luminol (66 µM). Pour évaluer la production de l'anion superoxyde (O2^-), la chimiluminescence est mesurée en présence de SOD, un inhibiteur spécifique de la production d'anion superoxyde. Pour évaluer la production d'oxyde nitrique (NO), la chimiluminescence est mesurée en présence de la L-NMMA (NG-monométhyl-arginine, un compétiteur spécifique de la L-arginine pour la production de NO). Aucun des inhibiteurs n'affecte la viabilité aux concentrations utilisées.
Les analyses statistiques se basent sur la mesure de la surface sous la courbe et sont exprimées en coups x secondes.
La capacité des macrophages à produire de l'anion superoxyde et du monoxyde d'azote et leur modulation par la 15d-PGJ2 ont été également étudiées par la méthode de chimiluminescence qui permet d'évaluer non seulement la production d'anions superoxydes mais aussi celle du peroxynitrite produit au cours de l'interaction entre le monoxyde d'azote et l'anion superoxyde.
Afin d'évaluer la production d'anion superoxyde, la chimiluminescence a été mesurée- en présence ou non de SOD (enzyme métabolisant O2^- en H2O2) alors que la production de monoxyde d'azote est évaluée en présence d'un compétiteur de l'arginine qui est la L-NMMA. Tableau 3 : Effet des ligands agonistes de PPARγ sur la production d'agents oxydants par les macrophages en présence ou en absence de levure. L'évaluation de la production d'agents oxydants a été déterminée sur des macrophages en culture par la technique de chimiluminescence.
Cette étude a été réalisée afin de déterminer si l'augmentation de la production d'agents oxydants sous l'effet des agonistes de PPARγ dépendait ou non de la modulation des récepteurs mannose par ces différents traitements. Dans cet objectif, la modulation de la production d'agents oxydants par les macrophages transfectés par l'antisens spécifique des ARNm des récepteurs mannose a été étudiée. Après traitement avec les agonistes de PPARγ, le dosage de la quantité d'agents oxydants produits par les macrophages transfectés a été réalisé par chimiluminescence. Les résultats sont présentés dans le tableau 5. Tableau 5 : Implication du récepteur mannose dans la production d'agents oxydants des macrophages traités par les ligands de PPARγ. […]

The test system of assay [2] is macrophages. In words: Production of oxidants by macrophages from mice treated in vivo, chemiluminescence. Also on record: species or system souris. The conditions noted are these: macrophages from SWISS and RAG-2 mice treated in vivo, vs control mice; figure 7. An excerpt: Afin d'évaluer la production d'agents oxydants (radicaux libres oxygénés et monoxyde d'azote) par les macrophages après la mise en culture des macrophages, les activités conjointes de la NADPH oxydase et de la NOsynthase inductible sont mesurées par chimiluminescence en présence d'une sonde chimiluminogène, Luminol (SIGMA, France) : 5-amino2,3-diydro-1,4-phtalazine-dione. La production de chimiluminescence sera analysée avec un luminomètre (Wallac Victor II, Finlande) piloté par un ordinateur. Le luminol permet, en présence d'agents oxydants, l'émission de photons captés par le photomultiplicateur de la chambre noire du luminomètre thermostaté à 37°C et transformés en impulsions électriques quantifiables. Les valeurs de chimiluminescence seront enregistrées continuellement pendant 1 heure après incubation des cellules avec le luminol ([…]) et en présence ou non de levures.
L'évaluation de la production d'agents oxydants par les macrophages, en présence ou en absence de la levure, a été déterminée sur des macrophages en culture par la technique de chimiluminescence. La figure 7 expose les résultats obtenus, en nombre de coups secondes (C x S) comptabilisés pendant 1 heure, pour chaque test.

Another assay relates to C. albicans. Nature of the assay: Gastrointestinal candidiasis in mice: number of yeasts in organs by CFU and real-time quantitative PCR. The conditions noted are these: SWISS and RAG-2 mice, oesophage, estomac, caecum, vs untreated mice, figure 10.
The test system of assay [3] is macrophages péritonéaux. Nature of the assay: Phagocytosis of C. albicans by peritoneal macrophages from infected mice treated in vivo. The conditions noted are these: treated i.p. (15d-PGJ2 0,01 µmoles, rosiglitazone 0,1 µmoles), 1 h challenge 1:1.
Protocol: L'étude in vitro a été réalisée sur des lots de 10 souris, soit immunocompétentes (SWISS) ou immunodéficientes (RAG-2), qui ont été infectées par C. albicans.
Les souris hébergées dans des cages stériles ont été infectées par gavage de 500 µl d'une suspension de levures (2.10^7 cfu.ml^-1).
(§1) Ces injections ont été renouvelées tous les jours durant 5 jours.
Après une incubation de 2 heures à l'étuve à 37°C, 5 % CO2, les cellules non adhérentes ont été éliminées par deux rinçages en PBS.
Afin d'évaluer la capacité des macrophages à phagocyter C. albicans, une technique basée sur l'incorporation de nucléotides radioactifs (Uracile tritié) au niveau de l'ARN des levures en voie de multiplication a été réalisée. Les levures pré-marquées sont déposées sur les tapis macrophagiques et mises à incuber à 37°C sous 5 % CO2. […] Sachant que la radioactivité mesurée dans le lysat est proportionnelle à la quantité de levures phagocytées et que celle mesurée dans les surnageants est proportionnelle à la quantité de levures externes, le pourcentage de levures phagocytées par rapport à la quantité de levures totales sera déterminé selon la formule suivante : %Phagocytose = (dpmlysat)/(dpmlysat + dpmsurnageant) [formula]
For assay [4], the system named is récepteur mannose. In words: Mannose receptor expression on macrophages from mice treated in vivo, flow cytometry. The conditions noted are these: cells from SWISS and RAG-2 mice treated in vivo; figure 8. On the technique in general: A flow cytometer gives signals particle by particle.
Description: as §1
La quantité de molécule de mBSA fixée, reflet direct de la quantité de récepteurs mannose présente sur les cellules, a été analysée à l'aide d'un cytomètre en flux (FACScalibur, Becton Dickinson).
The test system of assay [5] is récepteur mannose. Nature of the assay: Mannose receptor expression on macrophages, FITC-mBSA flow cytometry. The format is cell-based, souris. The following applies: antagonist 0,1 µM, 24 h; figure 5. Here is the method: Pour les essais de cytométrie en flux, les macrophages sont rincés au PBS glacé. Le marquage des MMR est réalisé pendant une heure, dans la glace, à la manière d'un ligand spécifique conjugué avec de l'albumine bovine mannosylée marquée à la fluorescéine FITC (840 nM) (SIGMA, France). Afin de faciliter la sélection des populations de cellules viables, une coloration à l'iodure de propidium est réalisée. Toutes les analyses sont effectuées par le FACScalibur (Becton-Dickinson) en utilisant le logiciel CellQuest.
Dans une deuxième étape, l'induction de l'expression du récepteur mannose des macrophages péritonéaux murins sous l'effet des différents traitements a été étudiée par cytométrie de flux en présence d'un antagoniste irréversible de PPARγ, le GW 9662.
Ces résultats sont confirmés par la figure 5 qui montre que l'augmentation de l'expression du récepteur mannose à la surface des macrophages sous l'effet de la 15d-PGJ2 est antagonisée par le GW 9662.
Pour ce faire, les macrophages ont été traités pendant 3 jours avec l'antisens spécifique de l'ARNm du récepteur mannose (ODN). […] Les cellules ont été ensuite incubées avec la mBSA marquée au FITC, puis analysées par cytométrie en flux. L'intensité de la fluorescence analysée est représentée à la figure 6.

Assay [6] concerns macrophages péritonéaux. Nature of the assay: Phagocytosis of [3H]uracil-labelled C. albicans by treated peritoneal macrophages in vitro. The format is cell-based, souris. The conditions noted are these: effect of the PPARγ antagonist added; figure 2.
Protocol: Les macrophages, quant à eux, proviennent soit du péritoine de souris femelles SWISS (Centre d'élevage, Etablissement Janvier, France), soit du sang périphérique de donneurs sains. Ces macrophages, de souris ou d'humain, sont cultivés dans un milieu de culture SFM ("serum-free medium") optimisé pour la culture des macrophages, commercialisé par la société GibcoBRL, France. L'adhésion des cellules se produit après environ 2 heures de culture à 37°C sous atmosphère à 5 % de CO2. Les cellules n'adhérant pas à la boîte de culture sont éliminées par rinçage au PBS (GibcoBRL, France).
Pour étudier le mécanisme d'ingestion de C. albicans par les macrophages, des levures préalablement marquées par [^3H]uracile sont utilisées. Trois colonies de C. albicans sont dispersées dans 1 ml de bouillon Sabouraud contenant 150 µCi de [^3H]uracile. Après 24 heures de culture à 37°C sous agitation, les blastospores marqués sont centrifugés et resuspendus dans le SFM enrichi avec 1,8 % de glucose. Pour chaque essai, les monocouches de macrophages cultivées sur les plaques 24 puits sont traitées avec les agonistes de PPARγ pendant 20 heures, puis infectées avec C. albicans marqué et viable (dans une proportion macrophages/levures de 1:1) et laissées à incuber pendant 1 heure à 37°C, puis 2 heures à 5°C. Soumis à 5°C, les mécanismes de phagocytose sont bloqués. […]

Molecules are shown by their SMILES.

As to `CN(CCOc1ccc(CC2SC(=O)NC2=O)cc1)c1ccccn1` (centres unmarked) [rosiglitazone], in the assay with cellules RAW 264.7, the “Moyenne géométrique de l'intensité de fluorescence, CMV-PPAR-γ” value is 61,51 and the “Moyenne géométrique de l'intensité de fluorescence, CMV-LUC” value was 37,94. For the same compound, in the assay with macrophages [1], the “Production d'agents oxydants, avec ANS” value is listed as 8813 ± 190 coups x secondes; the “Production d'agents oxydants, avec ODN” value worked out at 7197 ± 77 coups x secondes; the “Production d'agents oxydants, sans antisens” value was 8960 ± 179 coups x secondes.

`CCCCCC=CC=C1C(=O)C=CC1CC=CCCCC(=O)O` (centres unmarked) [15d-PGJ2, 15-déoxy-Δ^12,14-prostaglandine J2]: in the assay with cellules RAW 264.7, the “Moyenne géométrique de l'intensité de fluorescence, CMV-PPAR-γ” value is given as 73 and the “Moyenne géométrique de l'intensité de fluorescence, CMV-LUC” value is reported as 44,29. Moreover, in the assay on macrophages [2], the “production basale d'agents oxydants par les macrophages” value was “la même quantité basale d'agents oxydants”. Also, in the assay on C. albicans, the “colonisation des différents organes (nombre de levures)” value is listed as “diminution significative de la colonisation”. Moreover, in the assay with macrophages [1], the “Production d'agents oxydants, avec ANS” value is 9678 ± 106 coups x secondes; the “Production d'agents oxydants, avec ODN” value came out at 7012 ± 98 coups x secondes; the “Production d'agents oxydants, sans antisens” value came out at 9161 ± 85 coups x secondes. Also, in the assay with macrophages [1] (with yeast, in presence of L-NMMA), the “Production d'agents oxydants pendant 1 heure, + Levures L-NMMA” value amounted to 14258 ± 216 coups x secondes. The “Production d'agents oxydants pendant 1 heure, + Levures SOD” value in the assay on macrophages [1] (with yeast, in presence of SOD) was found to be 7228 ± 212 coups x secondes. Besides, in the assay with macrophages [1] (with yeast, no inhibitor), the “Production d'agents oxydants pendant 1 heure, + Levures” value came out at 13905 ± 328 coups x secondes. The “Production d'agents oxydants pendant 1 heure, - Levure” value in the assay on macrophages [1] (without yeast) is on record as 7469 ± 238 coups x secondes. Also, in the assay on macrophages péritonéaux [3] (RAG-2 mice infected with C. albicans, control 59,82 ± 2,43), the “Index de phagocytose, RAG-2” value is given as 76,32 ± 1,89. Also, the “Index de phagocytose, SWISS” value with macrophages péritonéaux [3] (SWISS mice infected with C. albicans, control 42,97 ± 1,20) is listed as 65,26 ± 2,11. Also, the “quantité d'albumine bovine mannosylée marquée à la fluorescéine présente sur les macrophages” value in the assay on récepteur mannose [4] was “significativement augmentée”.

In the case of `O=C(Nc1ccccc1)c1cc([N+](=O)[O-])ccc1Cl` [GW 9662], the “augmentation de l'expression du récepteur mannose à la surface des macrophages sous l'effet de la 15d-PGJ2” value in the assay on récepteur mannose [5] is “antagonisée”. In addition, the “augmentation de la capacité de phagocytose des macrophages traités par les agonistes de PPARγ” value in the assay on macrophages péritonéaux [6] is “inhibée”.

As for `CC1(COc2ccc(CC3SC(=O)NC3=O)cc2)CCCCC1` (centres unmarked) [ciglitazone], in the assay on cellules RAW 264.7, the “Moyenne géométrique de l'intensité de fluorescence, CMV-PPAR-γ” value is 64,3 and the “Moyenne géométrique de l'intensité de fluorescence, CMV-LUC” value is recorded as 38,51. For the same compound, in the assay with macrophages [1], the “Production d'agents oxydants, avec ANS” value turned out to be 8322 ± 183 coups x secondes; the “Production d'agents oxydants, avec ODN” value was determined as 7109 ± 155 coups x secondes; the “Production d'agents oxydants, sans antisens” value is recorded as 8398 ± 104 coups x secondes.

(Values after patent publication EP1628646B1, “USE OF PPAR-GAMMA AGONISTS AS ANTI-INFECTIVE AGENTS” (priority 2003, dated 2004).)
